Entries after “also recorded” stand apart in the source; their conditions may differ.
System: MCF-7-AdrR cells
Assay: Cell proliferation (MTS) assay: adriamycin toxicity and chemosensitization
Conditions: for effect on adriamycin toxicity / chemosensitization (in words): 5.0 μM tested drug + adriamycin, 72 h, FIG. 15A, 16B
Description: FIG. 15A and FIG. 15B. […] FIG. 15B: Glycosylceramide levels in MDR Cells following drug treatment. […] In order to avoid differences in [^3 H]glycosylceramide values which account for cell death, the same amount of total radioactive lipid from each sample was applied to TLC separation.
FIG. 16A and FIG. 16B. […] FIG. 16A: Effect of PPMP on cellular glycosylceramide levels. […] [^3 H]Glycosylceramide was quantitated as described in the legend to FIG. 9.
Vehicle (acetone, ethanol) was always added to control (minus drug) wells. The cytotoxic activity of a drug was determined using the Promega CellTiter 96™ AQueous MTS cell proliferation assay kit. Each experimental point was performed in six replicates. MTS/PMS solution (20 μl/well) was aliquoted into all wells, and the cells were incubated for 2-3 h, or until an O.D. of 0.9-1.0 was obtained as a highest reading. Thereafter, absorbence at 490 nm was recorded using an ELISA plate reader (Molecular Devices, San Diego, Calif.).

Compound: CC/C(=C(\c1ccccc1)c1ccc(OCCN(C)C)cc1)c1ccccc1 [tamoxifen]
- effect on adriamycin toxicity / chemosensitization (in words): shifted to lower concentrations; also recorded: very potent in cell killing
- effect on adriamycin toxicity / chemosensitization (in words) (listed as Tamoxifen): potently sensitized
- effect of the substance alone on cell survival (in words) (MCF-7-AdrR, alone): not toxic

From patent publication US5885786A, “Methods for screening of substances for inhibition of multidrug resistance” (priority 1996, dated 1999)
